Assay [1] concerns the target human ADAMTS-5 (Homo sapiens (Human), UniProt Q9UNA0). Conditions: read-out: hADAMTS-5 potency IC50.
Protocol: Finally, the fluorescence is read on the Envision (Perkin Elmer) after an incubation of 90 min at 37° C.
The target in assay [2] is human TACE (Homo sapiens (Human), UniProt P78536). Conditions: read-out: TACE potency IC50.
Sequence of human TACE (P78536 whole entry, looked up, change not shown): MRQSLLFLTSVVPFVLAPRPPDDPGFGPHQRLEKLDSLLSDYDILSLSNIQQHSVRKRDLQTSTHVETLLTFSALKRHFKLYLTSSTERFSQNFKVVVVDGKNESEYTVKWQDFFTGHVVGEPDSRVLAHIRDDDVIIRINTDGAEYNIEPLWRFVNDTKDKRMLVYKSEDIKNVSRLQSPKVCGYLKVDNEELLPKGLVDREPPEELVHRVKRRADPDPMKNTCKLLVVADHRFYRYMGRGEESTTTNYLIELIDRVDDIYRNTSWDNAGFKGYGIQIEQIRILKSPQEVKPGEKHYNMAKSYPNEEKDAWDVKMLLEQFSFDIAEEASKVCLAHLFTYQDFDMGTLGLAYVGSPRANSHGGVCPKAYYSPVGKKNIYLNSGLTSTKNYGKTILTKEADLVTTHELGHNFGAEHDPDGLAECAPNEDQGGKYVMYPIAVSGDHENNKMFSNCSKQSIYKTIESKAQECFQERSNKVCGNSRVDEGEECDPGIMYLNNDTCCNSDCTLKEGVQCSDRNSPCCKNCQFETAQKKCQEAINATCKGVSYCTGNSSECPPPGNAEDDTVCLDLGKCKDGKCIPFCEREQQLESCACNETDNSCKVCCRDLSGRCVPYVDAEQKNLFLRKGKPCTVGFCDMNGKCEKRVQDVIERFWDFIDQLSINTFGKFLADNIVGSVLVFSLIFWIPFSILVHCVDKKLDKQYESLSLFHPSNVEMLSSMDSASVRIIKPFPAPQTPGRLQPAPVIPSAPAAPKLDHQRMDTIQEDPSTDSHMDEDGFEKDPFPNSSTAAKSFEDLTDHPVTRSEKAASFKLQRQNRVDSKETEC

Sequence of human ADAMTS-5 (Q9UNA0 262-930): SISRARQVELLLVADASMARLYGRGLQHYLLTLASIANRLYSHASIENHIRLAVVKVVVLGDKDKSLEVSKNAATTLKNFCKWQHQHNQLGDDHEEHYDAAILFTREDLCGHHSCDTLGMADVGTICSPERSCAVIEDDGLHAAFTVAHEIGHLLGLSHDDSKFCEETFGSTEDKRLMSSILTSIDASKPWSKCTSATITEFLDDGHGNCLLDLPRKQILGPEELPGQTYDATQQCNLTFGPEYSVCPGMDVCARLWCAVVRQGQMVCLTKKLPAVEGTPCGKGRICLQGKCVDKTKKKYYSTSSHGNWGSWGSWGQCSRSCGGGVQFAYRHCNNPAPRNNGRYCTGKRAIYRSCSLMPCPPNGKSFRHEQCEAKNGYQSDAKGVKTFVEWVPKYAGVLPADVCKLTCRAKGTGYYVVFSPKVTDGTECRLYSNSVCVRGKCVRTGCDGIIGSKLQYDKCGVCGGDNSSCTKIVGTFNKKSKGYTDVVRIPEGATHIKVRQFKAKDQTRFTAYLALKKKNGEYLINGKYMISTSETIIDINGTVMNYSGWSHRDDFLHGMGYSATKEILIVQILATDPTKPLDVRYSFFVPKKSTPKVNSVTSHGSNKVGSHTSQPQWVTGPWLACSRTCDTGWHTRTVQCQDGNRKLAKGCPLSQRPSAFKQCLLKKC

As for `COCC1(CC(C)C(=O)N2CCN(c3cc(F)c(Cl)c(F)c3)CC2)NC(=O)NC1=O` (stereo not drawn) [compound 279, 5-[3-[4-(4-chloro-3,5-difluoro-phenyl)piperazin-1-yl]-2-methyl-3-oxo-propyl]-5-(methoxymethyl)imidazolidine-2,4-dione], the IC50 (in general, the midpoint of a concentration-inhibition curve) came to 19 nM in assay [1] and 2990 nM in assay [2].

With `C[C@H]1CN(C(=O)CCC2(C3CC3)NC(=O)NC2=O)CCN1c1cccc2ccoc12` (stereo partly drawn) [compound 280, 5-[3-[(3S)-4-(benzofuran-7-yl)-3-methyl-piperazin-1-yl]-3-oxo-propyl]-5-cyclopropyl-imidazolidine-2,4-dione], the IC50 in assay [1] was 275 nM; in assay [2] it was > 20000 nM.

With `Cc1ccc(-c2cccc(N3CCN(C(=O)CCC4(C5CC5)NC(=O)NC4=O)C[C@@H]3C)c2)cn1` (stereo partly drawn) [compound 324, 5-cyclopropyl-5-[3-[(3S)-3-methyl-4-[3-(6-methyl-3-pyridyl)phenyl]piperazin-1-yl]-3-oxo-propyl]imidazolidine-2,4-dione], the IC50 in assay [1] is 407 nM; in assay [2], > 4000 nM.

Consider `Cc1cncc(N2CCN(C(=O)CCC3(C4CC4)NC(=O)NC3=O)C[C@@H]2C)c1` (stereo partly drawn) [compound 303, 5-cyclopropyl-5-[3-[(3S)-3-methyl-4-(5-methyl-3-pyridyl)piperazin-1-yl]-3-oxo-propyl]imidazolidine-2,4-dione], for which the IC50 in assay [1] is 266 nM; in assay [2], > 20000 nM.

On to `C[C@H]1CN(C(=O)CCC2(C3CC3)NC(=O)NC2=O)CCN1c1cc(F)cc(C#N)c1` (stereo partly drawn) [compound 334, 3-[(2S)-4-[3-(4-cyclopropyl-2,5-dioxo-imidazolidin-4-yl)propanoyl]-2-methyl-piperazin-1-yl]-5-fluoro-benzonitrile], for which the IC50 in assay [1] is 430 nM; in assay [2] it was > 20000 nM.

Take `Cc1ccc(C2(CCC(=O)N3CCN(c4ccc(Cl)c(Cl)c4)[C@@H](C)C3)NC(=O)NC2=O)cn1` (stereo partly drawn) [compound 464, 5-[3-[(3S)-4-(3,4-dichlorophenyl)-3-methyl-piperazin-1-yl]-3-oxo-propyl]-5-(6-methyl-3-pyridyl)imidazolidine-2,4-dione]: the IC50 was 26 nM in assay [1] and > 4000 nM in assay [2].

As to `C[C@H]1CN(C(=O)CCC2(c3ccccn3)NC(=O)NC2=O)CCN1c1cc(F)cc(F)c1` (stereo partly drawn) [compound 348, 5-[3-[(3S)-4-(3,5-difluorophenyl)-3-methyl-piperazin-1-yl]-3-oxo-propyl]-5-(2-pyridyl)imidazolidine-2,4-dione], the IC50 in assay [1] was 34 nM; in assay [2], > 4000 nM.

`COCC1(CC(C)C(=O)N2CCN(c3ccc(Cl)c(C(F)(F)F)c3)[C@@H](C)C2)NC(=O)NC1=O` (stereo partly drawn) [compound 478, 5-{3-[(S)-4-(4-Chloro-3-trifluoromethyl-phenyl)-3-methyl-piperazin-1-yl]-2-methyl-3-oxo-propyl}-5-methoxymethyl-imidazolidine-2,4-dione]: the IC50 was 61 nM in assay [1] and > 4000 nM in assay [2].

As to `C[C@H]1CN(C(=O)CCC2(c3ncccn3)NC(=O)NC2=O)CCN1c1cc(F)cc(Cl)c1` (stereo partly drawn) [compound 463, 5-[3-[(3S)-4-(3-chloro-5-fluoro-phenyl)-3-methyl-piperazin-1-yl]-3-oxo-propyl]-5-pyrimidin-2-yl-imidazolidine-2,4-dione], the IC50 in assay [1] is 46 nM; in assay [2], > 4000 nM.

Regarding `COc1ccc(C2(CCC(=O)N3CCN(c4cc(F)cc(F)c4)[C@@H](C)C3)NC(=O)NC2=O)cn1` (stereo partly drawn) [compound 356, 5-[3-[(3S)-4-(3,5-difluorophenyl)-3-methyl-piperazin-1-yl]-3-oxo-propyl]-5-(6-methoxy-3-pyridyl)imidazolidine-2,4-dione], the IC50 in assay [1] was 40 nM; in assay [2] it was > 4000 nM.

Turning to `Cc1cc(C2(CCC(=O)N3CCN(c4cc(F)cc(F)c4)[C@@H](C)C3)NC(=O)NC2=O)no1` (stereo partly drawn) [compound 387, 5-[3-[(3S)-4-(3,5-difluorophenyl)-3-methyl-piperazin-1-yl]-3-oxo-propyl]-5-(5-methylisoxazol-3-yl)imidazolidine-2,4-dione], the figures for the IC50 in assay [1] and in assay [2] were 37 nM and > 4000 nM, respectively.

As to `C[C@H]1CN(C(=O)CCC2(C3CC3)NC(=O)NC2=O)CCN1c1cccc(-c2ccnn2C)c1` (stereo partly drawn) [compound 368, 5-cyclopropyl-5-[3-[(3S)-3-methyl-4-[3-(2-methylpyrazol-3-yl)phenyl]piperazin-1-yl]-3-oxo-propyl]imidazolidine-2,4-dione], the IC50 is 257 nM in assay [1] and > 20000 nM in assay [2].

Consider `C[C@H]1CN(C(=O)CCC2(c3cccnc3)NC(=O)NC2=O)CCN1c1ccc(Cl)c(F)c1` (stereo partly drawn) [compound 315, 5-[3-[(3S)-4-(4-chloro-3-fluoro-phenyl)-3-methyl-piperazin-1-yl]-3-oxo-propyl]-5-(3-pyridyl)imidazolidine-2,4-dione], for which the IC50 was 42 nM in assay [1] and > 4000 nM in assay [2].

On to `C[C@H]1CN(C(=O)CCC2(C3CC3)NC(=O)NC2=O)CCN1c1ccc2[nH]ncc2c1` (stereo partly drawn) [compound 296, 5-cyclopropyl-5-[3-[(3S)-4-(1H-indazol-5-yl)-3-methyl-piperazin-1-yl]-3-oxo-propyl]imidazolidine-2,4-dione], for which the IC50 is > 4000 nM in assay [1] and > 20000 nM in assay [2].

In the case of `C[C@H]1CN(C(=O)CCC2(C3CC3)NC(=O)NC2=O)CCN1c1ccc2c(cnn2C)c1` (stereo partly drawn) [compound 297, 5-cyclopropyl-5-[3-[(3S)-3-methyl-4-(1-methylindazol-5-yl)piperazin-1-yl]-3-oxo-propyl]imidazolidine-2,4-dione], the half-maximal inhibitory concentration (IC50) in assay [1] is > 3620 nM; in assay [2], > 20000 nM.

For `CC(C)n1cc(-c2cccc(N3CCN(C(=O)CCC4(C5CC5)NC(=O)NC4=O)C[C@@H]3C)c2)cn1` (stereo partly drawn) [compound 370, 5-cyclopropyl-5-[3-[(3S)-4-[3-(1-isopropylpyrazol-4-yl)phenyl]-3-methyl-piperazin-1-yl]-3-oxo-propyl]imidazolidine-2,4-dione], the IC50 in assay [1] is 532 nM; in assay [2], > 20000 nM.

Consider `CC(CC1(CN2CCOCC2)NC(=O)NC1=O)C(=O)N1CCN(c2cc(Cl)cc(Cl)c2)[C@@H](C)C1` (stereo partly drawn) [compound 246, 5-[3-[(3S)-4-(3,5-dichlorophenyl)-3-methyl-piperazin-1-yl]-2-methyl-3-oxo-propyl]-5-(morpholinomethyl)imidazolidine-2,4-dione], for which the IC50 was 114 nM in assay [1] and > 19500 nM in assay [2].

Take `C[C@H]1CN(C(=O)CCC2(C3CC3)NC(=O)NC2=O)CCN1c1cncc(C#N)c1` (stereo partly drawn) [compound 330, 5-[(2S)-4-[3-(4-cyclopropyl-2,5-dioxo-imidazolidin-4-yl)propanoyl]-2-methyl-piperazin-1-yl]pyridine-3-carbonitrile]: the IC50 in assay [1] was > 4000 nM; in assay [2], > 20000 nM.

As to `C[C@H]1CN(C(=O)CCC2(C3CC3)NC(=O)NC2=O)CCN1c1cc(Cl)cc(Cl)n1` (stereo partly drawn) [compound 257, 5-cyclopropyl-5-[3-[(3S)-4-(4,6-dichloro-2-pyridyl)-3-methyl-piperazin-1-yl]-3-oxo-propyl]imidazolidine-2,4-dione], the IC50 in assay [1] is 1570 nM; in assay [2], > 4000 nM.

For the molecule `CC(CC1(c2ccccn2)NC(=O)NC1=O)C(=O)N1CCN(c2cccc(Cl)c2)[C@@H](C)C1` (stereo partly drawn) [compound 446, 5-(3-((S)-4-(3-chlorophenyl)-3-methylpiperazin-1-yl)-2-methyl-3-oxopropyl)-5-(pyridin-2-yl)imidazolidine-2,4-dione], the IC50 in assay [1] was 19 nM; in assay [2] it was 840 nM.

Turning to `C[C@H]1CN(C(=O)CCC2(c3cn(C)cn3)NC(=O)NC2=O)CCN1c1cc(Cl)cc(Cl)c1` (stereo partly drawn) [compound 466, 5-[3-[(3S)-4-(3,5-dichlorophenyl)-3-methyl-piperazin-1-yl]-3-oxo-propyl]-5-(1-methylimidazol-4-yl)imidazolidine-2,4-dione], the IC50 in assay [1] was 55 nM; in assay [2], 2640 nM.

For `Cc1cccc(C2(CCC(=O)N3CCN(c4ccc(F)c(Cl)c4)[C@@H](C)C3)NC(=O)NC2=O)n1` (stereo partly drawn) [compound 447, 5-[3-[(3S)-4-(3-chloro-4-fluoro-phenyl)-3-methyl-piperazin-1-yl]-3-oxo-propyl]-5-(6-methyl-2-pyridyl)imidazolidine-2,4-dione], the IC50 in assay [1] was 56 nM; in assay [2] it was 3620 nM.

For `Cc1nc(C2(CCC(=O)N3CCN(c4cc(F)cc(F)c4)[C@@H](C)C3)NC(=O)NC2=O)c[nH]1` (stereo partly drawn) [compound 354, 5-[3-[(3S)-4-(3,5-difluorophenyl)-3-methyl-piperazin-1-yl]-3-oxo-propyl]-5-(2-methyl-1H-imidazol-4-yl)imidazolidine-2,4-dione], the IC50 in assay [1] and in assay [2] was > 20000 nM each time.

Regarding `CC(CC1(C2CN(C(=O)OC(C)(C)C)C2)NC(=O)NC1=O)C(=O)N1CCN(c2ccc(F)c(F)c2)[C@@H](C)C1` (stereo partly drawn) [compound 239, tert-butyl 3-[4-[3-[(3S)-4-(3,4-difluorophenyl)-3-methyl-piperazin-1-yl]-2-methyl-3-oxo-propyl]-2,5-dioxo-imidazolidin-4-yl]azetidine-1-carboxylate], the values for the IC50 in assay [1] and in assay [2] were 46 nM and > 4000 nM, respectively.

On to `Cc1ccc(C2(CCC(=O)N3CCN(c4cccc(F)c4)[C@@H](C)C3)NC(=O)NC2=O)cn1` (stereo partly drawn) [compound 385, 5-[3-[(3S)-4-(3-fluorophenyl)-3-methyl-piperazin-1-yl]-3-oxo-propyl]-5-(6-methyl-3-pyridyl)imidazolidine-2,4-dione], for which the IC50 in assay [1] was 71 nM; in assay [2], > 4000 nM.

For `C[C@H]1CN(C(=O)CCC2(C3CC3)NC(=O)NC2=O)CCN1c1ccn(C)n1` (stereo partly drawn) [compound 374, 5-cyclopropyl-5-[3-[(3S)-3-methyl-4-(1-methylpyrazol-3-yl)piperazin-1-yl]-3-oxo-propyl]imidazolidine-2,4-dione], the IC50 is 3080 nM in assay [1] and > 20000 nM in assay [2].

`C[C@H]1CN(C(=O)CCC2(c3cn(C)cn3)NC(=O)NC2=O)CCN1c1cc(F)cc(F)c1` (stereo partly drawn) [compound 361, 5-[3-[(3S)-4-(3,5-difluorophenyl)-3-methyl-piperazin-1-yl]-3-oxo-propyl]-5-(1-methylimidazol-4-yl)imidazolidine-2,4-dione]: the IC50 in assay [1] was 51 nM; in assay [2], > 20000 nM.

Source of the values: patent US9926281B2 (priority 2014, dated 2018).
